Measurements reported in ChEMBL document CHEMBL1144732 (Bioorg Med Chem Lett, 2008).

Experiments:
Carbonic anhydrase 4 = Carbonic anhydrase 4 (Homo sapiens, UniProt P22748)
Carbonic anhydrase 13 = Carbonic anhydrase 13 (Mus musculus, UniProt Q9D6N1)
Carbonic anhydrase 3 = Carbonic anhydrase 3 (Homo sapiens, UniProt P07451)
[1] = biological target: Carbonic anhydrase 5A, mitochondrial (Homo sapiens, UniProt P35218)
[2] = biological target: Carbonic anhydrase 5B, mitochondrial (Homo sapiens, UniProt Q9Y2D0)
Carbonic anhydrase 14 = Carbonic anhydrase 14 (Homo sapiens, UniProt Q9ULX7)
Sequence of Carbonic anhydrase 14 (Q9ULX7 whole entry): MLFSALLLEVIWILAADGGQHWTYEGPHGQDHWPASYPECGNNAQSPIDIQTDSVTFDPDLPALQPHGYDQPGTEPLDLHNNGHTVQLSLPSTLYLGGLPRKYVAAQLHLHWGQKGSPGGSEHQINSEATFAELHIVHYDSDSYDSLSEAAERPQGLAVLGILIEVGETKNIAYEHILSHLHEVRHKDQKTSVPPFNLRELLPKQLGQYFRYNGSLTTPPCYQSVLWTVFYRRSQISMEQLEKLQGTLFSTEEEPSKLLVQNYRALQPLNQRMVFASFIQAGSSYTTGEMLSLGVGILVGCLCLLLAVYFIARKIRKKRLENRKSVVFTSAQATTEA

Sequence of Carbonic anhydrase 13 (Q9D6N1 whole entry): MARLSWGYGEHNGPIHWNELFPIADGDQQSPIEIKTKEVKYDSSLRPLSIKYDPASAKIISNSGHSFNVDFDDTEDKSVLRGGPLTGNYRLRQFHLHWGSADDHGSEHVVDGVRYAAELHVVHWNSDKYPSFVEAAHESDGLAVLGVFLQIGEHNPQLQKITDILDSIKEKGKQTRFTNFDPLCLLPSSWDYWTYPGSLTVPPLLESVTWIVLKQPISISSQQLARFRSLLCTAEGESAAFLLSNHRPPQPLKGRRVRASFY
Sequence of Carbonic anhydrase 5A, mitochondrial (P35218 whole entry): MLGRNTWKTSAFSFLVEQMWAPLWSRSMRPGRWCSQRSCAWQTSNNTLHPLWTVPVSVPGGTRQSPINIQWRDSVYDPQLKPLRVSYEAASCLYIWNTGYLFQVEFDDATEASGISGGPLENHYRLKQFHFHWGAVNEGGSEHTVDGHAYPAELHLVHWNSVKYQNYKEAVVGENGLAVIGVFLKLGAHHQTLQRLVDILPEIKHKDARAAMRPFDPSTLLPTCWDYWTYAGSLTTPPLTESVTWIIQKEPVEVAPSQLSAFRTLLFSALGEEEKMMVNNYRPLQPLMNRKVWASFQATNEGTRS
Sequence of Carbonic anhydrase 5B, mitochondrial (Q9Y2D0 whole entry): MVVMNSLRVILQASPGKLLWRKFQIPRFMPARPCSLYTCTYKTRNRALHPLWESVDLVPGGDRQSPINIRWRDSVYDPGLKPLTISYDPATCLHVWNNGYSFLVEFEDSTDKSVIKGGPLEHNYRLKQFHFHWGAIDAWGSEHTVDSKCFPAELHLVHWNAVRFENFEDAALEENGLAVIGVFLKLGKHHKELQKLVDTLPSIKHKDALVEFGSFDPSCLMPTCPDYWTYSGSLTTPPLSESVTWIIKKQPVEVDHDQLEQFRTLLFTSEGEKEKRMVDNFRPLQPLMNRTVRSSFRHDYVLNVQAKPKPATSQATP
Sequence of Carbonic anhydrase 3 (P07451 whole entry): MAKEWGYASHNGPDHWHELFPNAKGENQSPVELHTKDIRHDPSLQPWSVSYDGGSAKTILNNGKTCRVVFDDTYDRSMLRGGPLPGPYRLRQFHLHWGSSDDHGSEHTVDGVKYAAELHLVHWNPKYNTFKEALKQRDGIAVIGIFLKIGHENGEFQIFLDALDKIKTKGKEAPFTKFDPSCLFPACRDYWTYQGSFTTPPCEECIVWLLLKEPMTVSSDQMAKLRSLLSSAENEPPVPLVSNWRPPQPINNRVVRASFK
Sequence of Carbonic anhydrase 4 (P22748 whole entry): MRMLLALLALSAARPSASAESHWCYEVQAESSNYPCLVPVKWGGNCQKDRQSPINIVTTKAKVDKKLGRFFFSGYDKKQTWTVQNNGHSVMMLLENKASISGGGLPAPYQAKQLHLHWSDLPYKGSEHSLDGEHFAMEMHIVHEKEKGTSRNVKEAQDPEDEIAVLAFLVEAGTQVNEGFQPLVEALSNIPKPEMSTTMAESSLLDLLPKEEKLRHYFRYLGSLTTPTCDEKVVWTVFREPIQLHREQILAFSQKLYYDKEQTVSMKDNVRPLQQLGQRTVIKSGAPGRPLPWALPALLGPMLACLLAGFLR

Row | Ki (Carbonic anhydrase 4) [nM] | Ki (Carbonic anhydrase 13) [nM] | Ki (Carbonic anhydrase 3) [nM] | Ki [1] [nM] | Ki [2] [nM] | Ki (Carbonic anhydrase 14) [nM] | SMILES
1 | 3950 | 10 | – | – | – | – | CCNC1CN(CCCOC)S(=O)(=O)c2sc(S(N)(=O)=O)cc21 (single isomer, unassigned) [BRINZOLAMIDE]
2 | – | 1450 | 630000 | 81 | 91 | 1540 | NS(=O)(=O)c1cc(Cl)c(Cl)c(S(N)(=O)=O)c1 [DICHLORPHENAMIDE]
